Each structure is given as a SMILES string. Like-named read-outs stand apart in the source and are kept apart here. Marks after values point to notes of the source that are not given here. Some results are limits rather than exact numbers.

The subject of one data set is preclinical models. Details: method as in PMID 29774094, PMID 33273059. As to conditions: cited from earlier work.
For data set [1] the following is noted: human, in vivo.
Method: (§1) Serial plasma samples were collected for PK analysis on days 1 and 4 of cycle 1 before the morning dose; at 1, 2, 4, 6, and between 8−12 h after the morning dose. Additional samples were taken before the morning dose and 1 and 4 h after the morning dose on days 1 and 4 of cycle 2 and days 1 and 4 of cycle 5. PK parameters were determined using standard noncompartmental methods with Phoenix WinNonlin v8.1 (Certara, Princeton, NJ). Area under the plasma concentration−time curve (AUC) was calculated using the linear up/log down trapezoidal rule.
A further data set relates to advanced solid tumors. Particulars: MK-8353 300−400 mg twice daily, 3/15 patients; cited from earlier work.
In data set [2] the test system is human cancer xenograft models. Particulars: various human cancer xenograft models; cited from earlier work. (In general: A xenograft is tissue or cells of one species grown in another, often human tumour cells in immunodeficient mice.)
Another data set can be described thus: clinical. As to conditions: human, in vivo, Observed median time of maximum plasma concentration, range over dose levels.
Data set [3] deals with patients with advanced solid tumors. As to conditions: cited from earlier work.
The nature of data set [4]: Plasma pharmacokinetics after oral administration of the combination (noncompartmental). As to conditions: for AUC0−12 / AUC0−last / Cmax / tlast / tmax: plasma; for AUC0−12 / AUC0−last / Cmax: geometric mean (% geometric CV); for tlast / tmax: median (range).
Method: as §1
The subject of the next data set is advanced cancers. Also noted: method as in PMID 25385055. Particulars: selumetinib monotherapy, patients with advanced cancers; cited from earlier work.
The next data set has as its system patients. Also noted: method as in PMID 30681641. Particulars: cited from earlier work.
The mark [5] stands for this setting: MK-8353 400 mg twice daily (MTD).
The mark [6] stands for this setting: MK-8353 400 mg twice daily, n = 7.
Where [7] appears, read: MK-8353 800 mg twice daily, 6 patients.
Where [8] appears, read: cycle 1 Day 1, MK-8353 50 mg + selumetinib 25 mg oral BID.
The mark [9] stands for this setting: cycle 1 Day 1, MK-8353 100 mg + selumetinib 50 mg oral BID.
[10] abbreviates: cycle 1 Day 1, MK-8353 150 mg + selumetinib 75 mg oral BID.
The mark [11] stands for this setting: cycle 1 Day 4, MK-8353 50 mg + selumetinib 25 mg oral BID.
Setting [12] is: cycle 1 Day 4, MK-8353 100 mg + selumetinib 50 mg oral BID.
Setting [13] is: cycle 1 Day 4, MK-8353 150 mg + selumetinib 75 mg oral BID.

On to `Cc1cccc(CN2C(=O)c3cc(-c4nc(Nc5ccnn5C)ncc4C)cn3C[C@@H]2C)n1` [AZ6197], for which the “Antitumor activity of ERK inhibitor plus selumetinib versus each agent alone” value in the data set with preclinical models is listed as “greater antitumor activity versus each agent alone”.
Take `COC[C@H]1Cn2cc(-c3nc(Nc4ccnn4C)ncc3C)nc2C(=O)N1Cc1ccc(F)c(F)c1` [AZD0364]: the “Antitumor activity of ERK inhibitor plus selumetinib versus each agent alone” value with preclinical models was “greater antitumor activity versus each agent alone”.
As to `CS[C@@]1(C(=O)Nc2ccc3[nH]nc(-c4ccc(OC(C)C)nc4)c3c2)CCN(CC(=O)N2CC=C(c3ccc(-c4ncn(C)n4)cc3)CC2)C1` [MK-8353], the “Accumulation at steady state” value in data set [1] is reported as not above 2 fold. For the same compound, in the data set with advanced solid tumors, the “Patients with a partial response” value is given as 20%. Further, the Antitumor activity result in data set [2] was “Antitumor activity of MK-8353 was demonstrated”. The compound also came in with a tmax in “clinical” (cycle 1, all dose levels) of 1.97 to 2.05 h. Besides, in data set [3] (setting [5]), the Eye disorders result is reported as “no eye disorders occurred”, the Macular rash is 1 n, the Maculopapular rash is 3 n and the Pruritus was 1 n. Moreover, in data set [3] (setting [5]), the Urticaria is recorded as 1 n. In data set [3] (setting [6]), the Diarrhea is recorded as 2 n, the Dyspepsia was 2 n, the Nausea is on record as 4 n and the Vomiting was 2 n. Moreover, the Safety and tolerability result in [3] (MK-8353 400 mg twice daily) was “safe and well tolerated”. In data set [3] (setting [7]), the Blurred vision is listed as 2 n, the Visual impairment is 3 n and the Vitreous floaters is recorded as 1 n. In addition, in data set [3], the “MTD of MK-8353 monotherapy” value is 400 mg twice daily.
Usually Cmax stands for the highest concentration seen after dosing. Take `O=C(NOCCO)c1cc2[nH]cnc2c(F)c1Nc1ccc(Br)cc1Cl` [desmethyl selumetinib]: in data set [4] (from lowest to highest dose), the “Geometric mean minimum plasma concentration (Ctrough)” value was in the range of 8 to 26 nM. Also, the “AUC0−12” value in data set [4] (setting [8]) was 0.161 (52.4) h∙µmol/L; in data set [4] (setting [9]), 0.344 (73.5)^l h∙µmol/L; in data set [4] (setting [10]), 0.690 (56.3)^j h∙µmol/L; in data set [4] (setting [11]), 0.230 (63.5) h∙µmol/L; in data set [4] (setting [12]), 0.386 (49.6)^k h∙µmol/L; in data set [4] (setting [13]), 0.681 (35.7)^k h∙µmol/L. The “AUC0−last” value in data set [4] (setting [8]) was 0.144 (47.7) h∙µmol/L; in data set [4] (setting [9]) it was 0.261 (118.6) h∙µmol/L; in data set [4] (setting [10]), 0.547 (61.3) h∙µmol/L; in data set [4] (setting [11]), 0.202 (60.5) h∙µmol/L; in [4] (setting [12]), 0.267 (102.1) h∙µmol/L; in data set [4] (setting [13]), 0.486 (87.7)^f h∙µmol/L. Further, the highest concentration (Cmax) in data set [4] (setting [8]) was found to be 43.7 nM; in data set [4] (setting [9]) it was 93.5 nM; in data set [4] (setting [10]) it was 158 nM; in data set [4] (setting [11]), 56.3 nM; in data set [4] (setting [12]), 72.4 nM; in data set [4] (setting [13]), 97.7 nM. The tlast in data set [4] (setting [8]) was 8.02 (7.83–8.07) h; in data set [4] (setting [9]), 8.00 (3.92–11.33) h; in data set [4] (setting [10]) it was 8.00 (7.83–8.37) h; in data set [4] (setting [11]), 8.05 (7.97–8.08) h; in data set [4] (setting [12]) it was 8.00 (5.83–8.33) h; in [4] (setting [13]), 8.00 (0.00–8.05)^h. For the same compound, the tmax is 1.88 (0.92–2.05) h in data set [4] (setting [8]); 1.02 (0.88–2.08) h in data set [4] (setting [9]); 1.92 (0.83–4.00) h in data set [4] (setting [10]); 1.88 (1.87–2.00) h in data set [4] (setting [11]); 1.96 (0.95–3.97) h in [4] (setting [12]); 1.07 (0.00–5.92)^h in [4] (setting [13]). Further, the “Accumulation at steady state” value in data set [4] (twice daily dosing) is given as not above 2 fold.
`Cn1cnc2c(F)c(Nc3ccc(Br)cc3Cl)c(C(=O)NOCCO)cc21` [selumetinib]: in data set [1], the “Accumulation at steady state” value was not above 2 fold, the “Geometric mean minimum plasma concentration (Ctrough)” value was 0.101−0.456 µmol/L and the “Time of Cmax after dosing” value is listed as not above 2 h. Besides, the Objective response rates entry in the data set with advanced cancers was “up to 15%”. Further, the “Rates of treatment-related eye disorders” value in the data set on patients (selumetinib combination therapy with other agents (chemotherapies, targeted therapies)) is “up to 40%”. The “Rates of treatment-related eye disorders” value in the data set on patients (selumetinib monotherapy, previous studies) was 10−20%. The tmax in the data set “clinical” was in the range of 1 to 1.96 h.

The values above are taken from PMC10289957 (Investigational New Drugs, 2023).
